Reference: ChEMBL document CHEMBL1201862, “PubChem BioAssay data set” (2004)
The source made the active and inactive calls.

Assays:
[1] = test system: HEK293; assay: cells; assay type: functional, cell-based; settings: Homo sapiens
[2] = Vero E6 cell cytotoxicity, dose response, cytotoxicity control for non-replicating M. tuberculosis project, secondary assay (AID 492998); assay type: functional, VeroE6; settings: Vero C1008
[3] = test system: HEK293; assay: cells; assay type: functional, cell-based; settings: Homo sapiens; remark: listed apart in the source
[4] = test system: HEK293; assay: inhibition of NOD1-driven NF-kB reporter – cell-based, luminescence, uHTS, primary screen (AID 1578); assay type: functional; settings: Homo sapiens
[5] = THP-1 cell cytotoxicity, dose response, cytotoxicity control for non-replicating M. tuberculosis project (AID 489025); assay type: functional
[6] = HepG2 cell cytotoxicity, dose response, cytotoxicity control for non-replicating M. tuberculosis project (AID 489018); assay type: functional; settings: Mycobacterium tuberculosis
[7] = blockade of melanocortin 4 receptor signaling – cell-based, plate reader, cherry pick, counter-screen for LGR2 antagonist project, dose response (AID 743444); assay type: functional;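 further: transfected HEK 293 cells stimulated with alpha-MSH peptide; potency of inhibitors of the alpha-MSH evoked signal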
[8] = toxicity toward HepG2 liver cells – cell-based, plate reader, cherry-pick, antagonist series, cytotoxicity control, dose response (AID 743416); assay type: functional
[9] = A549 cell cytotoxicity, dose response, cytotoxicity control, plate reader, cherry-pick, antagonist series (AID 743412); assay type: functional, cell-based
[10] = HEK-293T viability loss after treatment – luminescence, T-cell screen hits, cytotoxicity control for TCR NF-kB inhibitor project, dose response (AID 489026); assay type: functional, cell-based;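 further: cells exposed to compound about 14 hours before the viability readout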
[11] = viability loss in HEK293 cells – cell-based, plate reader, cherry-picked samples, cytotoxicity control, dose response (AID 743446); assay type: functional
[12] = blockers of bursicon-stimulated LGR2 cAMP reporter – cell-based, HEK293, CRE-luciferase reporter, cherry pick, set 2, dose response (AID 743343); assay type: functional;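 further: transfected cells were stimulated with diluted bursicon conditioned medium after compound addition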
[13] = biological target: E3 ubiquitin-protein ligase Mdm2/Protein Mdm4 (Homo sapiens, UniProt O15151+Q00987); assay: disruption of Mdm2/MdmX protein binding – luminescence detection, dose response (AID 504593); assay type: functional
[14] = biological target: T1, Heat shock factor protein 1 (Mus musculus, UniProt P38532); assay: decrease of HSF1-responsive luciferase luminescence – cell-based, NIH3T3, dose retest, confirmation (AID 2382); assay type: functional;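 further: NIH3T3 fibroblasts with HSF1-driven luciferase reporter stressed by proteasome inhibitor MG132; luminescence from HSF1-driven luciferase expression after 8 hours of MG132 stress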
T1 sequence (P38532 whole entry): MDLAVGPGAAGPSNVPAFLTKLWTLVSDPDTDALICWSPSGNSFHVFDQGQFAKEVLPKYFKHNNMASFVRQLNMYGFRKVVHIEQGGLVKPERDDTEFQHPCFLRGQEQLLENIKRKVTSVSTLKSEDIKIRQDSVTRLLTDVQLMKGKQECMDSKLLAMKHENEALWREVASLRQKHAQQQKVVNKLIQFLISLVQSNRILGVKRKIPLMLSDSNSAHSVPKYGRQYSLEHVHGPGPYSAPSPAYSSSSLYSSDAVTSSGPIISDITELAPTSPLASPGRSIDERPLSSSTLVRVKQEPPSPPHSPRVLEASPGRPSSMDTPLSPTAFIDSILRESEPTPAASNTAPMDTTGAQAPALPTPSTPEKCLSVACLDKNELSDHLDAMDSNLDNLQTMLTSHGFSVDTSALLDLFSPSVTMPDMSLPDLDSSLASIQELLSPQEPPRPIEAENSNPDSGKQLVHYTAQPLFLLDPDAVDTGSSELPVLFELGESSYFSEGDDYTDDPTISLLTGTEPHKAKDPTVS

[15] = biological target: T2, Short transient receptor potential channel 4 (Mus musculus, UniProt Q9QUQ5); assay: block of DAMGO-driven TRPC4 calcium entry – cell-based, HEK293 TRPC4/mu-opioid, Fluo-4 calcium, dose response (AID 434942); assay type: functional;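 further: potency of inhibitors blocking the TRPC4 calcium response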
T2 sequence (Q9QUQ5 whole entry): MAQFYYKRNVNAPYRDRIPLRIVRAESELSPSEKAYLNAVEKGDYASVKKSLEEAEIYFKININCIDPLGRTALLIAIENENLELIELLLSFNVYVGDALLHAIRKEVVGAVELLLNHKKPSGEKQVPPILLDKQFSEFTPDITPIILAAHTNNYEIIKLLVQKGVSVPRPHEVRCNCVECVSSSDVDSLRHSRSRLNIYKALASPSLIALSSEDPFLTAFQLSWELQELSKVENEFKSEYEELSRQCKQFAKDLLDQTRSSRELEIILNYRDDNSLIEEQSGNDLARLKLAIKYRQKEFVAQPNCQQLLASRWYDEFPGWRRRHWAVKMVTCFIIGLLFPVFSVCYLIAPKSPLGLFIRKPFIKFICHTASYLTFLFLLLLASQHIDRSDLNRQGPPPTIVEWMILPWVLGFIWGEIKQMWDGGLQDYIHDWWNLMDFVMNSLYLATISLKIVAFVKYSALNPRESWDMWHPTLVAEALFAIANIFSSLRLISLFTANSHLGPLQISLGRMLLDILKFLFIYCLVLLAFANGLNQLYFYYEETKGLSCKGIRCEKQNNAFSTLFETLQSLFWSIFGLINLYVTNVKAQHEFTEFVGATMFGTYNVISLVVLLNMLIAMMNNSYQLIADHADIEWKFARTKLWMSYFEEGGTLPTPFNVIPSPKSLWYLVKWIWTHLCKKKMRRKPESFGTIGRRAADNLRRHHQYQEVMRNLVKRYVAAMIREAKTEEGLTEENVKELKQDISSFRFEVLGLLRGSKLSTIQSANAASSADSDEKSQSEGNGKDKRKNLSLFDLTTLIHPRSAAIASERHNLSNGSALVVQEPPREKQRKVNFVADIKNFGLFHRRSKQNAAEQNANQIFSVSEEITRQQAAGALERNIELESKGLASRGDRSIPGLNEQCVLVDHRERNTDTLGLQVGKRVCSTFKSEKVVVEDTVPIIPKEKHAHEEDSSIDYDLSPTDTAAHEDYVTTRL

[16] = biological target: Neurotensin receptor type 1 (Homo sapiens, UniProt P30989); assay type: functional;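 further: Image-based confirmatory dose-response assay measuring agonist activity at NTR1; NTR1-expressing U2OS osteosarcoma cells imaged for beta-arrestin GFP spot formation; agonist potency where compounds increase beta-arrestin recruitment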
[17] = viability loss in CEM21 cells – cell-based, CellTiter-Glo luminescence, cherry-picked, cytotoxicity control for viral fusion inhibitor project, dose response (AID 652042); assay type: functional;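 further: potency for signal decrease meaning cytotoxicity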
[18] = off-target signal loss in HeLa-CEM21 co-culture – HeLa F-luc CTL cells, cherry-picked, counter-screen for HIV-1 Env fusion inhibitor project, dose response (AID 652040); assay type: functional, cell-based;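 further: potency for signal decrease marking cytotoxic or nonspecific inhibition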
[19] = NIH3T3 cell viability loss – ATP luminescence, mouse fibroblasts, counter-screen, dose response (AID 2010); assay type: functional, cell-based;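 further: cells exposed to compound for about 90 hours before reading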
[20] = Luminescence Cell-Based Dose Retest to Confirm Inhibitors of Cancer Stem Cells. [Related pubchem assays (depositor defined):AID2717, AID2721]; assay type: functional; settings: Homo sapiens
[21] = cells; assay type: functional
[22] = test system: INS1; assay: INS-1E survival protection against cytokine death – cell-based, luminescence, retest, dose response (AID 449756); assay type: functional; settings: Rattus norvegicus;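 further: cell death triggered by IL-1 beta plus TNF-alpha plus IFN-gamma mixture; protective hits raise ATP signal compared with cytokine alone wells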
[23] = blockers of HIV-1 ZM109 envelope-driven cell-cell fusion – HeLa effector, CEM target cells, luciferase, cherry-pick, dose response (AID 652058); assay type: functional, cell-based;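 further: luciferase signal from HIV-1 Env mediated cell-cell fusion of effector and target cells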
[24] = HIV-1 AD8 envelope cell-cell fusion blockers – cherry-pick, dose response (AID 652062); assay type: functional, cell-based;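 further: luciferase signal from cell-cell fusion driven by HIV-1 clade B AD8 Env; potency is for inhibitors of fusion seen as a drop in luminescence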
[25] = biological target: G-protein coupled receptor 55 (Homo sapiens, UniProt Q9Y2T6); assay: inhibition of LPI-stimulated GPR55 beta-arrestin translocation – imaging, U2OS, beta-arrestin-GFP, LPI agonist, primary screen (AID 2013); assay type: functional;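 further: antagonist potency measured as reduced agonist-driven arrestin aggregation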
[26] = blockers of HIV-1 envelope-mediated cell-cell fusion – cherry-pick, dose response (AID 652057); assay type: functional, cell-based
[27] = Trypanosoma cruzi growth suppression in host cells – NIH3T3 host cells, beta-gal luminescence, confirmation (AID 2044); assay type: functional, cell-based;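 further: intracellular parasites grown in NIH/3T3 mouse fibroblasts as host cells; luminescent beta-galactosidase reporter signal from transgenic T. cruzi replicating inside host cells; inhibitors lower the luminescence signal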
[28] = biological target: T3, Beta-lactamase (Pseudomonas aeruginosa, UniProt Q79MP6); assay: inhibition of IMP-1 beta-lactamase activity – biochemical, epi-absorbance, selectivity assay for VIM-2 inhibitor project, dose response (AID 1920)
[29] = biological target: DNA dC->dU-editing enzyme APOBEC-3G (Homo sapiens, UniProt Q9HC16); assay: Dose Response confirmation of small molecule APOBEC3G DNA Deaminase Inhibitors via a fluorescence-based single-stranded DNA deaminase assay. [Related pubchem assays (depositor defined):AID493012, AID493028]; assay type: functional
[30] = biological target: Beta-lactamase (Salmonella choleraesuis (strain SC-B67), UniProt Q5J463); assay: Epi-absorbance-based counterscreen for selective VIM-2 inhibitors: dose response biochemical high throughput screening assay to identify inhibitors of TEM-1 serine-beta-lactamase.
[31] = biological target: DNA dC->dU-editing enzyme APOBEC-3A (Homo sapiens, UniProt P31941); assay: A3A deaminase inhibition for selectivity – biochemical, dose response (AID 504722); assay type: functional
[32] = biological target: T3, Beta-lactamase; assay: […] counterscreen for selective VIM-2 inhibitors: dose response biochemical high throughput screening assay to identify inhibitors of IMP-1 metallo-beta-lactamase.
[33] = biological target: Delta-type opioid receptor (Homo sapiens, UniProt P41143); assay: SAR Analysis of Antagonists of the DOR Receptor using an Image-Based Assay - Set 3. [Related pubchem assays (depositor defined):AID1777, AID1785]; assay type: functional;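 further: U2OS cells expressing DOR1 and beta-arrestin GFP stimulated with 100 nM SNC80; imaging of GFP-tagged beta-arrestin moving into spots after receptor activation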
[34] = biological target: Mu-type opioid receptor (Homo sapiens, UniProt P35372); assay: SAR Analysis of Antagonists of the MOR Receptor using an Image-Based Assay - Set 3. [Related pubchem assays (depositor defined):AID1777, AID1785, AID1786, AID1966, AID2133, AID2136, AID2284, AID2285, AID2420]; assay type: functional
[35] = biological target: Troponin, cardiac muscle (Homo sapiens, UniProt P19429+P45379+P63316); assay: Fluorescence-based biochemical high throughput dose response assay for activators of the calcium sensitivity of cardiac Regulated Thin Filaments (RTF). [Related pubchem assays (depositor defined):AID493008, AID493018, AID504382, AID504383]; assay type: protein-complex assay
[36] = biological target: T4, Streptokinase A (Streptococcus pyogenes serotype M1, UniProt P10520); assay: viability-normalized secreted streptokinase activity reduction – plasminogen activation absorbance, OD405, dose response (AID 1914); assay type: functional, Streptococcus pyogenes M1 GAS;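 further: secreted streptokinase activity via plasminogen activation per viability signal from cell pellet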
T4 sequence (P10520 whole entry): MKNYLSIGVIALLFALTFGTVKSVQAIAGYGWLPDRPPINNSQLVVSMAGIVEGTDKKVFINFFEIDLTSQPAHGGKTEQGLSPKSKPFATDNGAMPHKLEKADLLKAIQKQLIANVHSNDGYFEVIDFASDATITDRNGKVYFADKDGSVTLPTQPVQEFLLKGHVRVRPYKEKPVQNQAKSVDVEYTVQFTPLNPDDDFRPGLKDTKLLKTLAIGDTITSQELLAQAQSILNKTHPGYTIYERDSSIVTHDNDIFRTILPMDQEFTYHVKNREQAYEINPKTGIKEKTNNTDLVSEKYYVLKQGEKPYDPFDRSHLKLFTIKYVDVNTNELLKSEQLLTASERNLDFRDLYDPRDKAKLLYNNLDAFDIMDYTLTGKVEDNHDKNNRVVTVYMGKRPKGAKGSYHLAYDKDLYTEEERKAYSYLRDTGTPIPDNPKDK

[37] = test system: Streptococcus sp. 'group A'; assay: Streptococcus pyogenes SK(-)GAS viability under kanamycin – luminescence, BacTiterGlo, confirmation, counter-screen for streptokinase expression inhibitor project, dose response (AID 1900); assay type: functional, organism-based
[38] = test system: Streptococcus; assay: GAS UMAA2166 growth inhibition – luminescence, BacTiterGlo, counter-screen for streptokinase expression inhibitor project, dose response (AID 1915); assay type: functional, organism-based;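 further: potency for reduction of bacterial viability or growth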

Chain of DNA dC->dU-editing enzyme APOBEC-3A (P31941 whole entry): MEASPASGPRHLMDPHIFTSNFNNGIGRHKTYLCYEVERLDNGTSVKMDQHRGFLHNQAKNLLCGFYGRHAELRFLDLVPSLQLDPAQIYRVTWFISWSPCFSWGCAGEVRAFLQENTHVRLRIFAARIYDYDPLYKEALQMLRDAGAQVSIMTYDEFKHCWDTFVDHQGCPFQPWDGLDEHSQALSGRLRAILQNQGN
Chain of DNA dC->dU-editing enzyme APOBEC-3G (Q9HC16 whole entry): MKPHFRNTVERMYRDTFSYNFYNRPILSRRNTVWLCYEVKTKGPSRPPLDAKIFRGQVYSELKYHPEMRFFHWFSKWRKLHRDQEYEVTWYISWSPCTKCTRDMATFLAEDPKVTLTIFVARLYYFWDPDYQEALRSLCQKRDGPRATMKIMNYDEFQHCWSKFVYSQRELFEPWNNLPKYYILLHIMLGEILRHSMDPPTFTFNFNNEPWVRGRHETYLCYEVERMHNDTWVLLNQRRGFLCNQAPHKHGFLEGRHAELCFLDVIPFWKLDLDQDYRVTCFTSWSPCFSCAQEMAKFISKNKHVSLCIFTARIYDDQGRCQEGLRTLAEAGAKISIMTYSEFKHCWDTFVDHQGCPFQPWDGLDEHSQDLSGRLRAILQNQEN
Chain of E3 ubiquitin-protein ligase Mdm2/Protein Mdm4 (Q00987 whole entry): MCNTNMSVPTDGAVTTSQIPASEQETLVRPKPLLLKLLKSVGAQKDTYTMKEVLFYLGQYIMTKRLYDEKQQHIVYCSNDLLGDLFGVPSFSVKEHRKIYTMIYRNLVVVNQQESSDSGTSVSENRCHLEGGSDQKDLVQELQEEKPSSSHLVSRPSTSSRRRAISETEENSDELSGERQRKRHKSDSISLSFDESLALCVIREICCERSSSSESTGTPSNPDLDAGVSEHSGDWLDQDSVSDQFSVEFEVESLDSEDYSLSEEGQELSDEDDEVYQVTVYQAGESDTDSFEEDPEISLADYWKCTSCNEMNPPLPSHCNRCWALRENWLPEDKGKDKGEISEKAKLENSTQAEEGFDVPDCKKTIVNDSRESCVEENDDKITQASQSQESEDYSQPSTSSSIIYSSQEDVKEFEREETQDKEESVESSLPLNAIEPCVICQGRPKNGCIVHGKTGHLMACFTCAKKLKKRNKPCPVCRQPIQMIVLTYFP
Chain of E3 ubiquitin-protein ligase Mdm2/Protein Mdm4 (O15151 whole entry): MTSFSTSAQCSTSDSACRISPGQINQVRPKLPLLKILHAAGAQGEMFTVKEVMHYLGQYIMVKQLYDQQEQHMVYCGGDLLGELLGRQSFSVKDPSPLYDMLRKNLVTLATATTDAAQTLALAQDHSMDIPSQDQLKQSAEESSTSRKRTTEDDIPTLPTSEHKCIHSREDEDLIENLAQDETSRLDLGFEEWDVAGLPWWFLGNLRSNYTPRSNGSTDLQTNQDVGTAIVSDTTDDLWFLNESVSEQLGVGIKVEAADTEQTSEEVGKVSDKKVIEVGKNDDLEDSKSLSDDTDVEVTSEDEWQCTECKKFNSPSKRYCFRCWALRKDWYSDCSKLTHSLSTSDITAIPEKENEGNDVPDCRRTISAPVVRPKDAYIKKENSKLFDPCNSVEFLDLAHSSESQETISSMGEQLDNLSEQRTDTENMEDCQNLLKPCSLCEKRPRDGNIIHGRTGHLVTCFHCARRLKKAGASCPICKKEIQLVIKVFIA
T3 sequence (Q79MP6 whole entry): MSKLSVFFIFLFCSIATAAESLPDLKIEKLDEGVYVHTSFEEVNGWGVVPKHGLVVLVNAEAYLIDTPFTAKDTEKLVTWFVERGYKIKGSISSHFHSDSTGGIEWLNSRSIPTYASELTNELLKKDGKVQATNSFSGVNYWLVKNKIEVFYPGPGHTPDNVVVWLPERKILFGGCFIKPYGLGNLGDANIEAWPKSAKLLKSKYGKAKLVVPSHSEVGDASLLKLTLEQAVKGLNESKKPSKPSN
Chain of Neurotensin receptor type 1 (P30989 whole entry, the tested form may be a part): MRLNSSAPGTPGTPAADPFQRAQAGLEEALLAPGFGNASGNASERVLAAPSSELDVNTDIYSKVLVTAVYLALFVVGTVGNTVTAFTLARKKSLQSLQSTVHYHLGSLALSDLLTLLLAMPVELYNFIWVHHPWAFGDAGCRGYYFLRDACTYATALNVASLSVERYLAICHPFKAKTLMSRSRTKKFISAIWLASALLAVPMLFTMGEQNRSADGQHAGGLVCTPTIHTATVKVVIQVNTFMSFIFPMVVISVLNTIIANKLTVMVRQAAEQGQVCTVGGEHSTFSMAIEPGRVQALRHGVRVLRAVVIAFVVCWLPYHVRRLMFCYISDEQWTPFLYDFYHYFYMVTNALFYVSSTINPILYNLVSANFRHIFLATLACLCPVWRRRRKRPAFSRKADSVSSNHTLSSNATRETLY
Chain of Beta-lactamase (Salmonella choleraesuis (strain SC-B67), UniProt Q5J463) (Q5J463 whole entry): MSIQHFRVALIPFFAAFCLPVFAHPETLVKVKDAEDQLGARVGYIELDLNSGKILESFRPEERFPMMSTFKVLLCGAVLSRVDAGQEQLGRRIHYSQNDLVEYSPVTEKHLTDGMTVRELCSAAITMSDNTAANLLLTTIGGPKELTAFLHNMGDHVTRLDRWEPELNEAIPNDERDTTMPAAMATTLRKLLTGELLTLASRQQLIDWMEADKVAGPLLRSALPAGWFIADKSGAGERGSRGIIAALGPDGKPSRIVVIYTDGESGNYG
Chain of G-protein coupled receptor 55 (Q9Y2T6 whole entry, the tested form may be a part): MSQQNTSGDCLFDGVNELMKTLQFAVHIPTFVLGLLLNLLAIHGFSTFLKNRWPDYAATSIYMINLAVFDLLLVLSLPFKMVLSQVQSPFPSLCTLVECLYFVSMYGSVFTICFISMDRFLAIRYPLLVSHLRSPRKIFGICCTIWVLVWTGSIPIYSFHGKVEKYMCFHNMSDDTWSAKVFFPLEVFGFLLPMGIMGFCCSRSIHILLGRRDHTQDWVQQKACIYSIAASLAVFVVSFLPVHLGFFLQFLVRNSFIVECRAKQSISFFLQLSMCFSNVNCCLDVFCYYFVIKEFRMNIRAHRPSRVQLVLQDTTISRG
Chain of Delta-type opioid receptor (P41143 whole entry): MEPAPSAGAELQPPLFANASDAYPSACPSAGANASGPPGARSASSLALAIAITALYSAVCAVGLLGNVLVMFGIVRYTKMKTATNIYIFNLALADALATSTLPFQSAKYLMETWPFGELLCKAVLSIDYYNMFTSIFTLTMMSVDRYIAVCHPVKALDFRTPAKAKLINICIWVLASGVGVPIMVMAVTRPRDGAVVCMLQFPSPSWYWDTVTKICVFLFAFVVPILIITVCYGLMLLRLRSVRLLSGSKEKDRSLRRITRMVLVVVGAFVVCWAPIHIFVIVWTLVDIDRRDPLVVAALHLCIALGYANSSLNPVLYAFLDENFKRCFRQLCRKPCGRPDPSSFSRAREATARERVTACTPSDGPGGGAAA
Chain of Mu-type opioid receptor (P35372 whole entry): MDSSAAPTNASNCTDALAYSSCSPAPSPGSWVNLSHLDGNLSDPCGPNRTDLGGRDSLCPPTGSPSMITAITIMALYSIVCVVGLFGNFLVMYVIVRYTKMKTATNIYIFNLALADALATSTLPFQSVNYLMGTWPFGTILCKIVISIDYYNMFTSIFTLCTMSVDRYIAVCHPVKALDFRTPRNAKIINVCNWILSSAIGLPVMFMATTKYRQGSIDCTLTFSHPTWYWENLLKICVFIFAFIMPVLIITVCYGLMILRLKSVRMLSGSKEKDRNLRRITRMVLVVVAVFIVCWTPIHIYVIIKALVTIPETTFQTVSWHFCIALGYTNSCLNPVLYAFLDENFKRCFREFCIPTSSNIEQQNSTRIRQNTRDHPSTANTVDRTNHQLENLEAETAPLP

## CN(C)S(=O)(=O)Oc1ccc(C(=O)Nc2cccc(C(F)(F)F)c2)cc1
[1]
  IC50: 12.1 µM (active)
[2]
  CC50: > 20 µM (active)
[3]
  IC50: 6.71 µM (active)
[4]
  EC50: 10.9 µM (active)
[5]
  CC50: > 40 µM (active)
[6]
  CC50: > 20 µM (active)

## O=c1oc2ccccc2cc1-c1cn(-c2ccccc2)c(S)n1
[7]
  AC50: 0.259 µM (active)
[8]
  AC50: 19.4 µM (active)
[9]
  AC50: 8.78 µM (active)
[10]
  IC50: > 80 µM (inactive)
[11]
  AC50: 19.4 µM (active)
[12]
  AC50: 0.316 µM (active)
[13]
  IC50: 0.00374 µM (active)
[14]
  EC50: < 0.16 µM (active)

## Cc1ccc(OCc2cc(C(=O)N(C)CCc3nc4ccccc4[nH]3)no2)cc1C
[15]
  EC50: 1.06 µM (active)
[14]
  EC50: > 195 µM (not active)

## CC(NCC(O)COCCC12CC3CC(CC(C3)C1)C2)c1ccccc1 (stereo not given)
[16]
  EC50: 19.9 µM (active)
[17]
  AC50: 13.3 µM (active)
[2]
  CC50: 13.7 µM (active)
[18]
  AC50: 6.93 µM (active)
[19]
  EC50: > 60 µM (not active)
[20]
  AC50: 6.14 µM (active)
[21]
  IC50: 14.6 µM (active)
[22]
  AC50: 7.3 µM (active)
[23]
  AC50: 11.2 µM (active)
[24]
  AC50: 16.8 µM (active)
[25]
  IC50: 3.25 µM (active)
[5]
  CC50: 12.5 µM (active)
[26]
  AC50: 3.45 µM (active)
[27]
  EC50: 0.157 µM (active)
[6]
  CC50: 12.7 µM (active)

## Sc1nnc(-c2cccs2)n1C1CCCCC1
[28]
  IC50: > 59.6 µM (inactive)
[29]
  IC50: 4.59 µM (active)
[30]
  IC50: > 59.6 µM (inactive)
[31]
  IC50: > 100 µM (inactive)
[32]
  IC50: > 59.6 µM (inactive)

## Cc1ccc(S(=O)(=O)NCc2ccc(C(=O)NCCN(Cc3ccc(Br)cc3)C(C)C)cc2)cc1
[33]
  IC50: > 32 µM (inactive)
[34]
  IC50: > 32 µM (inactive)

## CCC(/C=C1\Oc2ccc(OC)cc2N1C)=C\c1sc2ccccc2[n+]1CCCS(=O)(=O)[O-]
[35]
  EC50: 0.853 µM (active)

## Cc1cc(-c2nnc(S)n2/N=C/c2ccc(C)s2)[nH]n1
[29]
  IC50: 2.28 µM (active)
[31]
  IC50: > 100 µM (inactive)

## C/C(=N\Nc1cc(C)nc(-c2ccccc2O)n1)c1ccccc1O
[36]
  EC50: 14 µM (active)
[13]
  IC50: 6.71 µM (active)
[37]
  EC50: 4.57 µM (active)
[38]
  EC50: > 150 µM (not active)
